Assay results taken from paper PMC12102759 (Protein Science : A Publication of the Protein Society, 2025).

system: G3BP1 NFT2; format: binding, human; conditions: library DMS-BM; bait G3BP1 NFT2; prey CAPRIN1; AQMQGPYNFIQDSM(averaged): mean of the two overlapping peptides over the shared positions

| Substance | DMS position-specific score (PSSM value) per amino-acid substitution, averaged |
| --- | --- |
| AQMQGPYNFIQDSM(averaged) Q2H (AHMQGPYNFIQDSM) | 0.02779 |
| AQMQGPYNFIQDSM(averaged) G5S (AQMQSPYNFIQDSM) | 0.1168 |
| AQMQGPYNFIQDSM(averaged) M3T (AQTQGPYNFIQDSM) | 0.05572 |
| AQMQGPYNFIQDSM(averaged) A1N (NQMQGPYNFIQDSM) | 0.01838 |
| AQMQGPYNFIQDSM(averaged) I10L (AQMQGPYNFLQDSM) | 0.1472 |
| AQMQGPYNFIQDSM(averaged) M14M | 0.2883 |
| AQMQGPYNFIQDSM(averaged) I10A (AQMQGPYNFAQDSM) | 0.0009869 |
| AQMQGPYNFIQDSM(averaged) Q4P (AQMPGPYNFIQDSM) | 0.003604 |
| AQMQGPYNFIQDSM(averaged) P6T (AQMQGTYNFIQDSM) | 0.1796 |
| AQMQGPYNFIQDSM(averaged) A1I (IQMQGPYNFIQDSM) | 0.00266 |
| AQMQGPYNFIQDSM(averaged) Q11N (AQMQGPYNFINDSM) | 0.05691 |
| AQMQGPYNFIQDSM(averaged) Q4S (AQMSGPYNFIQDSM) | 0.003246 |
| AQMQGPYNFIQDSM(averaged) Q4A (AQMAGPYNFIQDSM) | 0.0506 |
| AQMQGPYNFIQDSM(averaged) Q2N (ANMQGPYNFIQDSM) | 0.006268 |
| AQMQGPYNFIQDSM(averaged) M3F (AQFQGPYNFIQDSM) | 0.0581 |
| AQMQGPYNFIQDSM(averaged) Q11G (AQMQGPYNFIGDSM) | 0.1489 |
| AQMQGPYNFIQDSM(averaged) Q11S (AQMQGPYNFISDSM) | 0.05986 |
| AQMQGPYNFIQDSM(averaged) G5V (AQMQVPYNFIQDSM) | 0.008337 |
| AQMQGPYNFIQDSM(averaged) I10T (AQMQGPYNFTQDSM) | 0.01974 |
| AQMQGPYNFIQDSM(averaged) P6N (AQMQGNYNFIQDSM) | 0.03046 |
| AQMQGPYNFIQDSM(averaged) G5Q (AQMQQPYNFIQDSM) | 0.004656 |
| AQMQGPYNFIQDSM(averaged) S13D (AQMQGPYNFIQDDM) | 0.02096 |
| AQMQGPYNFIQDSM(averaged) F9I (AQMQGPYNIIQDSM) | 0 |

| Substance | DMS position-specific score (PSSM value) per amino-acid substitution, averaged |
| --- | --- |
| AQMQGPYNFIQDSM(averaged) I10G (AQMQGPYNFGQDSM) | 0.004165 |
| AQMQGPYNFIQDSM(averaged) N8L (AQMQGPYLFIQDSM) | 0.06185 |
| AQMQGPYNFIQDSM(averaged) Y7L (AQMQGPLNFIQDSM) | 0.1143 |
| AQMQGPYNFIQDSM(averaged) Q2Q | 0.0522 |
| AQMQGPYNFIQDSM(averaged) Q2I (AIMQGPYNFIQDSM) | 0.05266 |
| AQMQGPYNFIQDSM(averaged) Q11R (AQMQGPYNFIRDSM) | 0.004534 |
| AQMQGPYNFIQDSM(averaged) F9E (AQMQGPYNEIQDSM) | 0 |
| AQMQGPYNFIQDSM(averaged) A1F (FQMQGPYNFIQDSM) | 0.03963 |
| AQMQGPYNFIQDSM(averaged) D12T (AQMQGPYNFIQTSM) | 0.005851 |
| AQMQGPYNFIQDSM(averaged) P6F (AQMQGFYNFIQDSM) | 0.002152 |
| AQMQGPYNFIQDSM(averaged) F9T (AQMQGPYNTIQDSM) | 0 |
| AQMQGPYNFIQDSM(averaged) Q4V (AQMVGPYNFIQDSM) | 0.1002 |
| AQMQGPYNFIQDSM(averaged) Q11Y (AQMQGPYNFIYDSM) | 0.0642 |
| AQMQGPYNFIQDSM(averaged) G5H (AQMQHPYNFIQDSM) | 0.006873 |
| AQMQGPYNFIQDSM(averaged) Y7A (AQMQGPANFIQDSM) | 0 |
| AQMQGPYNFIQDSM(averaged) P6Q (AQMQGQYNFIQDSM) | 0.00431 |
| AQMQGPYNFIQDSM(averaged) S13Y (AQMQGPYNFIQDYM) | 0.0135 |
| AQMQGPYNFIQDSM(averaged) I10N (AQMQGPYNFNQDSM) | 0.0004895 |
| AQMQGPYNFIQDSM(averaged) Q11M (AQMQGPYNFIMDSM) | 0.0771 |
| AQMQGPYNFIQDSM(averaged) S13Q (AQMQGPYNFIQDQM) | 0 |
| AQMQGPYNFIQDSM(averaged) M3A (AQAQGPYNFIQDSM) | 0.007318 |
| AQMQGPYNFIQDSM(averaged) N8A (AQMQGPYAFIQDSM) | 0.06427 |
| AQMQGPYNFIQDSM(averaged) F9G (AQMQGPYNGIQDSM) | 0.0001993 |

| Substance | DMS position-specific score (PSSM value) per amino-acid substitution, averaged |
| --- | --- |
| AQMQGPYNFIQDSM(averaged) Q2S (ASMQGPYNFIQDSM) | 0.004198 |
| AQMQGPYNFIQDSM(averaged) N8F (AQMQGPYFFIQDSM) | 0.00737 |
| AQMQGPYNFIQDSM(averaged) I10Y (AQMQGPYNFYQDSM) | 0.003704 |
| AQMQGPYNFIQDSM(averaged) Q4I (AQMIGPYNFIQDSM) | 0.04808 |
| AQMQGPYNFIQDSM(averaged) N8V (AQMQGPYVFIQDSM) | 0.1991 |
| AQMQGPYNFIQDSM(averaged) G5L (AQMQLPYNFIQDSM) | 0.1936 |
| AQMQGPYNFIQDSM(averaged) S13P (AQMQGPYNFIQDPM) | 0 |
| AQMQGPYNFIQDSM(averaged) M3Y (AQYQGPYNFIQDSM) | 0.01355 |
| AQMQGPYNFIQDSM(averaged) D12A (AQMQGPYNFIQASM) | 0.09226 |
| AQMQGPYNFIQDSM(averaged) G5I (AQMQIPYNFIQDSM) | 0.01217 |
| AQMQGPYNFIQDSM(averaged) I10K (AQMQGPYNFKQDSM) | 0.0003536 |
| AQMQGPYNFIQDSM(averaged) Y7I (AQMQGPINFIQDSM) | 0.113 |
| AQMQGPYNFIQDSM(averaged) Q4Q | 0.2404 |
| AQMQGPYNFIQDSM(averaged) M14Q (AQMQGPYNFIQDSQ) | 0.06683 |
| AQMQGPYNFIQDSM(averaged) Y7R (AQMQGPRNFIQDSM) | 0 |
| AQMQGPYNFIQDSM(averaged) I10H (AQMQGPYNFHQDSM) | 0.003149 |
| AQMQGPYNFIQDSM(averaged) Q11F (AQMQGPYNFIFDSM) | 0.006502 |
| AQMQGPYNFIQDSM(averaged) M14S (AQMQGPYNFIQDSS) | 0.001956 |
| AQMQGPYNFIQDSM(averaged) M3N (AQNQGPYNFIQDSM) | 0.00226 |
| AQMQGPYNFIQDSM(averaged) A1R (RQMQGPYNFIQDSM) | 0.004419 |
| AQMQGPYNFIQDSM(averaged) Y7F (AQMQGPFNFIQDSM) | 0.03551 |
| AQMQGPYNFIQDSM(averaged) D12V (AQMQGPYNFIQVSM) | 0.005056 |

system: G3BP1 NFT2; format: binding, human; conditions: library DMS-CoV; bait G3BP1 NFT2; prey N; peptide APRITFGGPSDSTGSN; listed as aa = residue placed at this position; column sums to 1

| Substance | DMS PSSM value, R (position 3) | DMS PSSM value, G (position 7) | DMS PSSM value, S (position 15) | DMS PSSM value, T (position 13) |
| --- | --- | --- | --- | --- |
| APRITFGGPSDSTGSN R3S (APSITFGGPSDSTGSN) | 0.004779 |  |  |  |
| APRITFGGPSDSTGSN G7A (APRITFAGPSDSTGSN) |  | 0 |  |  |
| APRITFGGPSDSTGSN S15M (APRITFGGPSDSTGMN) |  |  | 0.006693 |  |
| APRITFGGPSDSTGSN T13F (APRITFGGPSDSFGSN) |  |  |  | 0.002251 |

same assay, conditions: library DMS-CoV; bait G3BP1 NFT2; prey N; peptide RNAPRITFGGPSDSTG; listed as aa = residue placed at this position; column sums to 1

| Substance | DMS PSSM value, P (position 4) | DMS PSSM value, P (position 11) | DMS PSSM value, R (position 5) | DMS PSSM value, G (position 9) | DMS PSSM value, T (position 7) | DMS PSSM value, G (position 16) | DMS PSSM value, F (position 8) |
| --- | --- | --- | --- | --- | --- | --- | --- |
| RNAPRITFGGPSDSTG P4A (RNAARITFGGPSDSTG) | 0 |  |  |  |  |  |  |
| RNAPRITFGGPSDSTG P11D (RNAPRITFGGDSDSTG) |  | 0 |  |  |  |  |  |
| RNAPRITFGGPSDSTG R5G (RNAPGITFGGPSDSTG) |  |  | 0 |  |  |  |  |
| RNAPRITFGGPSDSTG G9Q (RNAPRITFQGPSDSTG) |  |  |  | 0 |  |  |  |
| RNAPRITFGGPSDSTG T7D (RNAPRIDFGGPSDSTG) |  |  |  |  | 0 |  |  |
| RNAPRITFGGPSDSTG G16A (RNAPRITFGGPSDSTA) |  |  |  |  |  | 0 |  |
| RNAPRITFGGPSDSTG G9H (RNAPRITFHGPSDSTG) |  |  |  | 0 |  |  |  |
| RNAPRITFGGPSDSTG F8K (RNAPRITKGGPSDSTG) |  |  |  |  |  |  | 0 |
